US20050182122A1, “Method of treating abnormal cell growth using indolinone compounds” (priority 2003, published 2005)
“And” between values parts separate entries of the source, which are not always exact repeats. Equal values may be shown once.

Tests used:
blood/plasma half life = assay type: in vivo
Procedure: Administration of the compound of formula 1, or its active metabolite 2, in an effective dosing regimen, must take into account the long blood/plasma half lives of these two compounds, approximately 40 and 80 hours, respectively, as well as their safety profiles. Thus, there is a need for safe and therapeutically effective dosing regimens for administering the compounds of formula 1 and 2 to a mammal, including a human, for treating abnormal cell growth, such as cancer.

[1] = Example 2: AML patients, toxicities; assay type: in vivo, human
Procedure: (§1) Constitutively activating mutations of the receptor FLT3 are present in approximately 30% of patients with AML and correlate with poor prognosis. […] Two dose levels (50 and 75 mg) and 2 schedules (Group A: 4 weeks of treatment followed by a 14 day rest period; and Group B: 4 weeks of treatment followed by a 7 day rest period) were evaluated in 3 cohorts of patients. Flt3 genotyping for ITD and D835 mutations was performed to enable retrospective stratification. Correlative laboratory studies to assess inhibition of target phosphorylation, and modulation of signaling pathways regulating apoptosis and proliferation were performed by Western blot and immunohistochemistry analyses and FL expression and IHC were conducted.

[2] = Example 1: metastatic renal cell carcinoma patients, adverse events; assay type: in vivo, human
Source text: (§2) Eligibility included measurable disease, ECOG performance status of 0 or 1, failure of one prior cytokine-based therapy due to disease progression or toxicity, and adequate cardiac function as defined by normal ejection fraction on MUGA or ECHO. Patients were excluded if they had significant cardiac events within the past 12 months or received more than one prior cytokine regimen.

[3] = Example 3: solid tumor patients, dose limiting toxicities; assay type: in vivo, human
Source text: (§3) The patients were characterized as follows: 15 male, 13 female; age range 33-78 years; median age 55 years; median PS 0; WHO PS, 0 (22 patients), 1 (3 patients), 2 (3 patients). The number of pretreatment regimens ranged from 0 to 9, with a median of 2. The tumors types (number of patients) were: renal cell carcinoma (4); neuroendocrine tumors (4); colorectal cancer (3); non-small cell lung cancer (2); mesotheliomas (2); uterine carcinoma (2); breast cancer (2); pancreas (2); angiosarcoma (2); esophagus (1); undifferentiated carcinoma of nasopharynx (1); parotid adenocarcinoma (1); melanoma (1); gastrointestinal stromal tumor (1). […] All other trials were dosed with flat doses (i.e., mg). All dosage amounts are free-base equivalents. A plus symbol (+) following the number of cycles indicates the patient was still on study at the date the data were summarized.

primary or secondary AML = assay: Example 2: AML patients, clinical activity by WHO criteria; assay type: in vivo, human; set-up: key to Best Response: NE: not evaluated; PR: partial response; SD: stable disease; PD: Progressive Disease; conditions: for Best Response: AML, one line per patient
Procedure: as §1

solid tumors = assay: Example 3: solid tumor patients, antitumor activity; assay type: in vivo, human
Source text: as §3

[4] = test system: metastatic renal cell carcinoma (RCC); assay: Example 1: metastatic renal cell carcinoma patients, best response by RECIST; assay type: in vivo, human
Source text: as §2

FLT3-ITD xenograft tumor = FLT3-ITD xenograft tumor model; assay type: in vivo; conditions: pre-clinical experiments
[5] = test system: bone marrow engraftment model; assay: bone marrow engraftment model; assay type: in vivo; conditions: pre-clinical experiments
FLT3 = assay: Example 2: AML patients, FLT3 phosphorylation and expression (Western blot, immunohistochemistry); assay type: in vivo, human
Procedure: as §1

[6] = 15 AML patients, 50 or 75 mg daily
[7] = 15 AML patients, 50 or 75 mg daily, 4 weeks treatment, 14 or 7 day rest, mainly grade 1-2
[8] = preliminary safety data N=44, 50 mg daily 4 weeks/2-week rest, mostly grades 1 and 2
[9] = preliminary safety data N=44, without signs of pancreatitis
[10] = all dosing schedules, 23 evaluable
[11] = 63 metastatic RCC patients, 50 mg daily orally 4 weeks, 2-week rest

CCNCCNC(=O)c1c(C)[nH]c(/C=C2\C(=O)Nc3ccc(F)cc32)c1C [Compound 2, 5-(5-fluoro-2-oxo-1,2-dihydroindol-(3Z)-ylidenemethyl)-2,4-dimethyl-1H-pyrrole-3-carboxylic acid (2-ethylaminoethyl)-amide]
half-life (blood/plasma half life): ~80 h

CCN(CC)CCNC(=O)c1c(C)[nH]c(/C=C2\C(=O)Nc3ccc(F)cc32)c1C [5-(5-fluoro-2-oxo-1,2-dihydroindol-(3Z)-ylidenemethyl)-2,4-dimethyl-1H-pyrrole-3-carboxylic acid (2-diethylaminoethyl)-amide]
Grade 3 drug related fatigue, patients [1, 6]: 20%
toxicity: diarrhea [1, 7]: 13%
toxicity: fatigue [1, 7]: 27%
toxicity: nausea [1, 7]: 33%
toxicity: vomiting [1, 7]: 13%
dose limiting toxicity, fatigue grade 4 (number) ([1]; at 75 mg): One
taken off study for toxicity ([2]; 63 metastatic RCC patients): 8 patients
Grade 3 event: anemia ([2]; preliminary safety data N=44): 5%
Grade 3 event: leukocytopenia ([2]; preliminary safety data N=44): 5%
Grade 3 event: lymphopenia ([2]; preliminary safety data N=44): 32%
Grade 3 event: neutropenia ([2]; preliminary safety data N=44): 9%
grade 3 thrombocytopenia ([2]; preliminary safety data N=44): no patients
adverse event constipation, frequency [2, 8]: 34%
adverse event diarrhea, frequency [2, 8]: 46%
adverse event dyspepsia, frequency [2, 8]: 30%
adverse event fatigue/asthenia, frequency [2, 8]: 67%
adverse event nausea, frequency [2, 8]: 50%
adverse event stomatitis, frequency [2, 8]: 43%
Grade 3 event: elevated amylase [2, 9]: 9%
Grade 3 event: elevated lipase [2, 9]: 23%
decreases in left ventricular ejection fraction >20% without clinical symptoms ([2]; taken off the study): Two
patients with dose limiting toxicities at cycle 1 ([3]; 50 mg daily patients): 2 of 9
dose limiting toxicity grade 3 edema ([3]; 50 mg daily patients, cycle 1): 1 patient
dose limiting toxicity grade 4 thrombocytopenia ([3]; 50 mg daily patients, cycle 1): 1 patient
patients with dose limiting toxicities at cycle 1 ([3]; 75 mg daily patients): 5 of 11
dose limiting toxicity grade 3 asthenia ([3]; 75 mg daily patients, cycle 1): 3 patients
dose limiting toxicity grade 3 hypertension ([3]; 75 mg daily patients, cycle 1): 1 patient
dose limiting toxicity grade 5 tumor necrosis ([3]; 75 mg daily patients, cycle 1): 1 patient
patients with dose limiting toxicities at cycle 1 ([3]; 100 mg daily patients): 2 of 3
dose limiting toxicity grade 3 asthenia ([3]; 100 mg daily patients, cycle 1): 1 patient
dose limiting toxicity grade 3 hypertension ([3]; 100 mg daily patients, cycle 1): 1 patient
course of asthenia ([3]; cycle 1): progressively from grade 1 at week 1 to grade 3-4 at week 4
main dose-limiting toxicity ([3]; doses greater than or equal to 50 mg, appeared during cycle 1): Asthenia
rest period required for reversal of grade 3 asthenia ([3]; human, in vivo): 2-4 week
dose limiting toxicity at cycle 1 ([3]; the 150 mg daily patient): grade 3 asthenia
evidence of clinical activity of short duration by WHO criteria (primary or secondary AML; [6]): 7 patients
morphologic response (less than 5% blasts in bone marrow, absence of blasts in peripheral blood), number of patients (primary or secondary AML; [6]): 1
partial responses (reduction of blasts by more than 50% in blood and bone marrow), number of patients (primary or secondary AML; [6]): 6
Best Response (primary or secondary AML; 50 mg daily, schedule 4/1 weeks treatment/rest): SD (3×) and PR (2×)
Best Response (primary or secondary AML; 50 mg daily, schedule 4/2 weeks treatment/rest): PD (3×) and PR (3×) and Morph. R
Best Response (primary or secondary AML; 75 mg daily, schedule 4/2 weeks treatment/rest): PR
rebound of blasts during the treatment-free (rest) period, patients (primary or secondary AML; of the 7 patients with clinical activity): 2
responding patients with mutated FLT3 (ITD or D835) (primary or secondary AML; of the responding patients): Three
Tumor Progression (solid tumors; 50 mg Q2D, 3 patients): 3
Tumor Response (#) (solid tumors; 50 mg Q2D, 3 patients): 0
Tumor Stabilization (#) (solid tumors; 50 mg Q2D, 3 patients): 0
Tumor Stabilization, Time (solid tumors; 50 mg QD): 8 months
Tumor Progression (solid tumors; 50 mg QD, 6 patients): 5
Tumor Response (#) (solid tumors; 50 mg QD, 6 patients): 0
Tumor Stabilization (#) (solid tumors; 50 mg QD, 6 patients): 1
Tumor Progression (solid tumors; 75 mg QD, 9 patients): 0
Tumor Response (#) (solid tumors; 75 mg QD, 9 patients): 3
Tumor Stabilization (#) (solid tumors; 75 mg QD, 9 patients): 2
Tumor Stabilization, Time (solid tumors; 75 mg QD, one value per patient): 4 months and 5 months
Tumor Progression (solid tumors; 100 mg Q2D, 1 patient): 0
Tumor Response (#) (solid tumors; 100 mg Q2D, 1 patient): 1
Tumor Stabilization (#) (solid tumors; 100 mg Q2D, 1 patient): 0
Tumor Stabilization, Time (solid tumors; 100 mg QD): 6 months
Tumor Progression (solid tumors; 100 mg QD, 3 patients): 0
Tumor Response (#) (solid tumors; 100 mg QD, 3 patients): 2
Tumor Stabilization (#) (solid tumors; 100 mg QD, 3 patients): 1
Tumor Stabilization, Time (solid tumors; 150 mg QD): 3 months
Tumor Progression (solid tumors; 150 mg QD, 1 patient): 0
Tumor Response (#) (solid tumors; 150 mg QD, 1 patient): 0
Tumor Stabilization (#) (solid tumors; 150 mg QD, 1 patient): 1
Tumor Progression, totals (solid tumors; [10]): 8/23
Tumor Response (#), totals (solid tumors; [10]): 6/23
Tumor Stabilization (#), totals (solid tumors; [10]): 5/23
taken off study for PD ([4]; 63 metastatic RCC patients): Twelve
Best response by RECIST: confirmed partial, patients [4, 11]: 16%
Best response by RECIST: progression, patients [4, 11]: 27%
Best response by RECIST: stable, patients [4, 11]: 41%
reduction of unidimensional measurement of at least 30%, awaiting confirmation of response status, patients [4, 11]: 10%
partial responders remaining progression free ([4]; of 10 patients with partial response, median follow-up of 4 months from start of therapy): 9
partial responders who progressed ([4]; of 10 patients with partial response, progressed at 5 months): 1 patient

CCN(CC)CCNC(=O)c1c(C)[nH]c(/C=C2\C(=O)Nc3ccc(F)cc32)c1C [Compound 1, 5-(5-fluoro-2-oxo-1,2-dihydroindol-(3Z)-ylidenemethyl)-2,4-dimethyl-1H-pyrrole-3-carboxylic acid (2-diethylaminoethyl)-amide]
tolerability in advanced AML population ([1]; 50 mg dose): tolerable
efficacy in FLT3-ITD xenograft tumor model (FLT3-ITD xenograft tumor): dose-dependent efficacy
efficacy in bone marrow engraftment model [5]: dose-dependent efficacy
target inhibition (FLT3; 50 mg dose): consistently observed
time to decreased FLT3 protein expression (FLT3; patient with FLT3 ITD mutation, Group B, consistent with decreasing blast counts): ≤ 8 days
FLT3 phosphorylation after administration (FLT3; patient with FLT3 ITD mutation, Group B, similar in 2 other FLT3 mutant patients): inhibition of FLT3 phosphorylation
duration of partial response (primary or secondary AML; one patient with FLT3 ITD mutation, Group B (50 mg daily, 4 weeks treatment/7 day rest)): 4 month
half-life (blood/plasma half life): ~40 h
